From ChEMBL document CHEMBL3232938, “Design, synthesis, and biological evaluation of dihydroartemisinin-fluoroquinolone conjugates as a novel type of potential antitubercular agents” (2014) come the findings set out here.

Type in all cases: functional
Assay [1] deals with Escherichia coli. Description: Antibacterial activity against Escherichia coli assessed as zone of inhibition at 2 ug/ml. Conditions: read-out: DIZ.
In assay [2] the test system is Pseudomonas aeruginosa. Put plainly: Antibacterial activity against Pseudomonas aeruginosa assessed as zone of inhibition at 2 ug/ml. Conditions: read-out: DIZ.
In assay [3] the test system is Salmonella. Put plainly: Antibacterial activity against Salmonella assessed as zone of inhibition at 2 ug/ml. Conditions: read-out: DIZ.
For assay [4], the system named is Mycobacterium tuberculosis. Put plainly: Antibacterial activity against 1 ug/ml Mycobacterium tuberculosis H37Rv ATCC 27294 assessed as growth inhibition after 7 days by microtiter plate assay. Conditions: H37Rv ATCC 27294, 168 h.
The test system of assay [5] is Staphylococcus aureus. Put plainly: Antibacterial activity against Staphylococcus aureus assessed as growth inhibition after 7 days by microtiter plate assay. Conditions: 168 h.
Assay [6] concerns Staphylococcus aureus. Put plainly: Antibacterial activity against Staphylococcus aureus assessed as zone of inhibition at 2 ug/ml. The conditions noted are these: read-out: DIZ.
The test system of assay [7] is Mycobacterium tuberculosis. Put plainly: Antibacterial activity against 0.5 ug/ml Mycobacterium tuberculosis H37Rv ATCC 27294 assessed as growth inhibition after 7 days by microtiter plate assay. The conditions noted are these: H37Rv ATCC 27294, 168 h.
Assay [8] concerns Pseudomonas aeruginosa. Description: Antibacterial activity against Pseudomonas aeruginosa assessed as growth inhibition after 7 days by microtiter plate assay. Conditions: 168 h.
Assay [9] relates to Salmonella. Put plainly: Antibacterial activity against Salmonella assessed as growth inhibition after 7 days by microtiter plate assay. The conditions noted are these: 168 h.
Assay [10] concerns Escherichia coli. Description: Antibacterial activity against duck Escherichia coli assessed as zone of inhibition at 2 ug/ml. The conditions noted are these: read-out: DIZ.
For assay [11], the system named is Escherichia coli. Put plainly: Antibacterial activity against duck Escherichia coli assessed as growth inhibition after 7 days by microtiter plate assay. Conditions: 168 h.
The test system of assay [12] is Escherichia coli. Put plainly: Antibacterial activity against Escherichia coli assessed as growth inhibition after 7 days by microtiter plate assay. The conditions noted are these: 168 h.

Molecules are shown by their SMILES. Values after ≈ are worked out from the molar mass of the structure shown.

As a reminder, the MIC is the lowest concentration that inhibits growth of the organism. For `C[C@H]1[C@@H](OCCN2CCN(c3cc4c(cc3F)c(=O)c(C(=O)O)cn4C3CC3)CC2)O[C@@H]2O[C@@]3(C)CC[C@H]4[C@H](C)CC[C@@H]1[C@@]24OO3`, the zone of inhibition at 2 µg/mL in assay [1], in [2], in assay [3], in assay [6] and in assay [10] was < 5 mm throughout. Moreover, the minimal inhibitory concentration (MIC) in assay [4] is > 6.23 µM; in [5], 8 µg/mL (≈ 12.5 µM); in [7], > 6.23 µM; in assay [8], 16 µg/mL (≈ 24.9 µM); in assay [9] it was 16 µg/mL (≈ 24.9 µM); in [11], 8 µg/mL (≈ 12.5 µM). For the same molecule, the minimal inhibitory concentration (MIC) in [12] came out at 16 µg/mL (≈ 24.9 µM).

As for `C[C@H]1[C@@H](OC(=O)CCC(=O)N2CCN(c3cc4c(cc3F)c(=O)c(C(=O)O)cn4-c3ccc(F)cc3)CC2)O[C@@H]2O[C@@]3(C)CC[C@H]4[C@H](C)CC[C@@H]1[C@@]24OO3`, the zone of inhibition at 2 µg/mL in assay [1], in [2], in [3], in [6] and in assay [10] was < 5 mm throughout. The MIC was > 5.32 µM in assay [4]; 8 µg/mL (≈ 10.6 µM) in [5]; > 5.32 µM in [7]; 16 µg/mL (≈ 21.3 µM) in assay [8]; 16 µg/mL (≈ 21.3 µM) in [9]; 8 µg/mL (≈ 10.6 µM) in assay [11]. Further, in [12], the MIC is 16 µg/mL (≈ 21.3 µM).

For `C[C@H]1[C@@H](OC(=O)CCC(=O)NC2CCN(c3c(F)cc4c(=O)c(C(=O)O)cn(C5CC5)c4c3Cl)C2)O[C@@H]2O[C@@]3(C)CC[C@H]4[C@H](C)CC[C@@H]1[C@@]24OO3` (some centres not stated), the zone of inhibition at 2 µg/mL in assay [1] is 9 mm; in [2], < 5 mm; in assay [3] it was 10 mm; in [6], < 5 mm; in assay [10] it was < 5 mm. Also, the MIC in assay [4] is 2.73 µM (≈ 2 µg/mL); in assay [5], 8 µg/mL (≈ 10.9 µM); in [7], 1.37 µM (≈ 1 µg/mL); in assay [8], 16 µg/mL (≈ 21.9 µM); in assay [9], 16 µg/mL (≈ 21.9 µM); in [11] it was 16 µg/mL (≈ 21.9 µM). The MIC in assay [12] was determined as 8 µg/mL (≈ 10.9 µM).

Take `C[C@H]1[C@@H](OCCCN2CCN(c3cc4c(cc3F)c(=O)c(C(=O)O)cn4C3CC3)CC2)O[C@@H]2O[C@@]3(C)CC[C@H]4[C@H](C)CC[C@@H]1[C@@]24OO3`: the zone of inhibition at 2 µg/mL in [1], in assay [2], in assay [3], in [6] and in assay [10] was < 5 mm each time. The MIC in assay [4] is > 3.05 µM; in [5] it was 8 µg/mL (≈ 12.2 µM); in assay [7], > 3.05 µM; in assay [8] it was 16 µg/mL (≈ 24.4 µM); in assay [9] it was 16 µg/mL (≈ 24.4 µM); in [11], 16 µg/mL (≈ 24.4 µM). Further, the MIC in assay [12] amounted to 16 µg/mL (≈ 24.4 µM).

In the case of `CCn1cc(C(=O)O)c(=O)c2cc(F)c(N3CCN(CCO[C@H]4O[C@@H]5O[C@@]6(C)CC[C@H]7[C@H](C)CC[C@@H]([C@H]4C)[C@@]57OO6)CC3)cc21`, the zone of inhibition at 2 µg/mL in assay [1], in assay [2], in assay [3], in assay [6] and in [10] was < 5 mm in each case. The MIC in [4] was > 3.18 µM; in assay [5], 8 µg/mL (≈ 12.7 µM); in assay [7], > 3.18 µM; in assay [8], 16 µg/mL (≈ 25.4 µM); in assay [9], 16 µg/mL (≈ 25.4 µM); in assay [11], 16 µg/mL (≈ 25.4 µM). Further, the minimum inhibitory concentration (MIC) in assay [12] came to 16 µg/mL (≈ 25.4 µM).

Regarding `CC1COc2c(N3CCN(C)CC3)c(F)cc3c(=O)c(C(=O)O)cn1c23` (configuration not stated) [OFLOXACIN], the MIC in assay [4] and in [7] was 0.69 µM (≈ 0.249 µg/mL) each time.
